Assay results published in patent US12115153B2, “Methods of treating cancer” (Kartos Therapeutics, Inc., priority 2018, dated 2024).

What was measured:
[1] = tested on: AML tumor; test: AML tumor growth (FIG. 7, FIG. 8); assay type: in vivo, mouse
[2] = tested on: SJSA-1 (MDM2 amplified) tumor; test: SJSA-1 xenograft study; assay type: in vivo, female athymic nude mice
Method: (§1) All animal experimental procedures were conducted in accordance with Association for Assessment and Accreditation of Laboratory Animal Care standards. All studies utilized 4- to 6-week-old female athymic nude mice (Harlan Laboratories, Hsd: Athymic Nude-Foxn1nu). The mice were housed five per filter-capped cage in sterile housing in an environmentally controlled room (temperature 23±2° C., relative humidity 50±20%) on a 12-hour light/dark cycle. The mice were fed commercial rodent chow (Harlan Laboratories, #2920X) and received filter-purified tap water ad libitum. The mice were individually identified by microchips (Bio Medic Data Systems) that were implanted subcutaneously at least 2 days before the study.
Treatment began when tumors were established and approximately 200 mm3. […] Tumor dimensions were assessed twice weekly with a Pro-Max electronic digital caliper (Sylvac) and tumor volume was calculated using the formula: length×width×height and expressed as mm3. Data are expressed as mean±SEM. […] Analysis of p21 mRNA at the end of the xenograft studies was performed as described for the p21 pharmacodynamic assay.

[3] = tested on: tumor cell lines harboring wild-type p53; test: Xenograft models of different genetic backgrounds and tumor types (all models); assay type: in vivo, female athymic nude mice; conditions: daily oral administration, FIGS. 3-5
Method: as §1
(§2) SJSA-1 cells (5×10^6 cells with Matrigel at a ratio of 2:1), NCI-H460 cells (5×10^6 cells with Matrigel at a ratio of 2:1), A375sq2 (5×10^6 cells with Matrigel at a ratio of 2:1), or HCT116 ([…]) were injected subcutaneously in the flank of female athymic nude mice (n=10/group). Treatment began when tumors were established and approximately 200 mm3. […] Tumor dimensions were assessed twice weekly with a Pro-Max electronic digital caliper (Sylvac) and tumor volume was calculated using the formula: length×width×height and expressed as mm3. Data are expressed as mean±SEM. Body weight was recorded twice weekly to assess tolerability (data not shown). […]

[4] = tested on: p53 wild-type tumor cell lines; test: Cell viability assay (72 hours), panel of tumor cell lines; assay type: cell-based
Text: SJSA-1, HCT116, ACHN, NCI-H460, MOLM-13, RKO, MCF7, 22RV1, HT-29, PC-3, NCI-H82, NCI-SNU1, and MG-63 cells were purchased from the ATCC, and have since been authenticated by short tandem repeat analysis (PowerPlex 18D Kit from Promega). NCI-H2452, SW982, C32, SK-HEP-1, A375, RT4, RPMI-2650, MDA-MB-134-VI, NCI-H2347, and A427 cells were purchased from ATCC and used within 6 months. IGR-1 and CML-T1 cells were purchased from German Collection of Microorganisms and Cell Cultures (DSMZ) and used within 6 months. A375sq2 cells were generated by in vivo passaging A375 cells in mice. HCT116 p53^−/− cells were obtained from Bert Vogelstein. […]
CellTiter-Glo Luminescent Cell Viability (Promega) or ATPlite 1 step Luminescent (PerkinElmer) assay kits were used to determine the numbers of viable cells. Luminescence was measured with an EnVision Multilabel Reader (PerkinElmer) for each cell line at time zero (V0) before the addition of compounds, as well as after 72 hours of compound treatment. Growth inhibition (GI) was calculated on a 200-point scale according to the following equations, where V72 was luminescence of DMSO control at 72 hours and T72 was luminescence of the compound-treated sample: if T72>V0, then GI=100×(1−((T72−V0)/(V72−V0))); if T72<V0, then GI=100×(1−((T72−V0)/V0)). […]

[5] = tested on: A375sq2 (BRAF) tumor; test: A375sq2 xenograft study; assay type: in vivo, female athymic nude mice
Method: as §1, §2

[6] = tested on: p21 mRNA; test: p21 mRNA in tumors harvested at the end of xenograft studies (qRT-PCR); assay type: in vivo, female athymic nude mice; conditions: FIG. 6
Method: Tumor cells (SJSA-1: 5×10^6 cells, HCT 116: 2×10^6 cells) were injected subcutaneously into the flank of female athymic nude mice in a 2:1 ratio of cells to Matrigel (BD Bioscience). […] Tumors were harvested after 1, 2, 4, 8, and 24 hours after dose (SJSA-1) or 6 hours after dose (HCT116) and snap-frozen in liquid nitrogen. Total RNA was purified using Qiagen RNeasy 96 kit (Qiagen). The levels of p21 and the housekeeping gene GAPDH were assayed from total RNA from each sample in technical duplicates by qRTPCR. The qRT-PCR reactions were assayed on the Applied Biosystems Prism 7900HT instrument and the data were analyzed with Applied Biosystems SDS2.2 software. The SDS2.2 software calculated the p21 and GAPDH copy number in each of the tumor samples. The copy number of p21 was normalized to the copy number of the GAPDH, and the fold increase of normalized p21 levels were calculated relative to vehicle control for each sample. For MIC-1, plasma was collected at the time of sacrifice and MIC-1 was detected using R&D Quantikine Human MIC-1 Immunoassay (cat no. DGD150) following the manufacturer's instructions. The ELISA assay was read using a Spectramax M5 microplate reader using Softmax pro v4 (Molecular Devices). […]

[7] = tested on: HCT116 (KRAS) tumor; test: HCT116 xenograft study; assay type: in vivo, female athymic nude mice
Method: as §1
SJSA-1 cells (5×10^6 cells with Matrigel at a ratio of 2:1), NCI-H460 cells (5×10^6 cells with Matrigel at a ratio of 2:1), A375sq2 (5×10^6 cells with Matrigel at a ratio of 2:1), or HCT116 ([…]) were injected subcutaneously in the flank of female athymic nude mice (n=10/group). Treatment began when tumors were established and approximately 200 mm3. The compound of Formula (I) was administered once per day by oral gavage. Tumor dimensions were assessed twice weekly with a Pro-Max electronic digital caliper (Sylvac) and tumor volume was calculated using the formula: length×width×height and expressed as mm3. Data are expressed as mean±SEM. Body weight was recorded twice weekly to assess tolerability (data not shown). Analysis of p21 mRNA at the end of the xenograft studies was performed as described for the p21 pharmacodynamic assay.

[8] = tested on: cell cycle; test: Cell cycle (FIG. 9); assay type: cell-based
[9] = tested on: p53 wild type AML cell lines; test: Apoptosis in AML cell lines (FIG. 10); assay type: cell-based

## CC(C)[C@@H](CS(=O)(=O)C(C)C)N1C(=O)[C@@](C)(CC(=O)O)C[C@H](c2cccc(Cl)c2)[C@H]1c1ccc(Cl)cc1 [compound of Formula (I), 2-((3R,5R,6S)-5-(3-chlorophenyl)-6-(4-chlorophenyl)-1-((S)-1-(isopropylsulfonyl)-3-methylbutan-2-yl)-3-methyl-2-oxopiperidin-3-yl) acetic acid]
[1]
  AML tumor growth: inhibits AML tumor growth in a mouse model in a dose dependent manner
[2]; 75 mg/kg group, treatment stopped after day 25, observed additional 50 days
  tumor regrowth after treatment stopped: no detectable SJSA-1 tumor regrowth
[2]; Mus musculus, SJSA-1, po, once per day by oral gavage, read-out: ED50, in vivo tumor growth
  ED50: 9 mg/kg
[2]; highest dose group of 75 mg/kg, after 10 days of treatment
  tumors completely regressed and undetectable: 10 of 10
[3]
  tumor growth inhibition (TGI) across all models: significant tumor growth inhibition
[4]; 23 p53 wild-type cell lines, 72-hour period, read-out: IC50, inhibition of cell growth
  IC50: 100 to 1000 nM
[4]; FIG. 2
  proliferation of p53 WT tumor cells: inhibits the proliferation of p53 WT tumor cells
[5]; Mus musculus, A375-SQ2, once per day by oral gavage, read-out: ED50, in vivo tumor growth
  ED50: 18 mg/kg
[5]; mouse, in vivo
  TGI: 97%
[6]
  induction of p21 mRNA compared with vehicle-treated tumors: dose- and time-dependent induction of p21 mRNA
[7]; Mus musculus, HCT-116, po, once per day by oral gavage, read-out: ED50, in vivo tumor growth
  ED50: 31.6 mg/kg
[7]; highest dose
  TGI compared with control: 86%
[7]; once per day by oral gavage
  ED50, in vivo tumor growth: 31 mg/kg
[8]
  effect on cell cycle: inhibits the cell cycle
[9]
  apoptosis: induces apoptosis
